Reference: patent US20110070232A1, “Combination Therapy with an Antitumor Alkaloid” (Pharma Mar, S.A., priority 2008, published 2011)
Like-named read-outs stand apart in the source and are kept apart here.

Experiments:
Hs746T tumors = assay type: in vivo, mice; conditions: mg/kg/day: PM00104 0.90 IV, cisplatin 5 IP, paclitaxel 10 IP
Excerpt: Female athymic nude mice (Harlan Sprague Dawley, Madison, Wis.) were utilized for all experiments. Animals were housed in ventilated rack caging with food and water ad libitum. The mice were acclimated for at least 5 days prior to tumor implantation with a tumor cell suspension. The Vehicle Control group contained 11 mice, groups 2-4 contained 7 mice and the rest of groups contained 8 mice.
The tumor model used in these studies was Hs746T cell line, which was obtained from the ATCC (Manassas, Va.).
Hs746T cells were grown in DMEM supplemented with 10% FBS, 1.5 g/L sodium bicarbonate, 4.5 g/L glucose, and 4 mM L-glutamine. Each animal was implanted SC on the right flank, using a trochar, with 5×10^6 Hs746T cells, from in vitro passage 18, in a 0.2 mL suspension of 50% Matrigel and 50% serum free medium, without antibiotics. Bacterial cultures were performed on aliquots of the cells prepared for implantation.
Treatments were initiated on DPI 16.
(§1) Tumor size measurements were recorded twice weekly from the treatment initiation until the termination of the study.
(§2) Mean, standard deviation and standard error of the mean were determined for tumor volume for all animal groups at all assessments. Student's t test was performed on tumor volumes at each measurement day, including at the end of the study, to determine whether there were any statistically significant differences between combination treatment groups and single monotherapy treatment groups.

[1] = tested on: NCI-H23 (lung cancer) cell line; test: IC50 determination, MIT (tetrazolium) assay, 72 h (Example 18); assay type: cell-based, human; conditions: Homo sapiens; NCI-H23, 72 hours of drug exposure
Procedure: NCI-H23 cells were grown in RPMI supplemented with 10% Fetal Bovine Serum (FBS), 1% penicillin/streptomycin and 2 mM L-glutamine.
Before plating, cell cultures were trypsinized and cell number estimated using an automated flow cytometer.
Cells were harvested and seeded in 96 well microtiter plates at the appropriate cell density (5,000-10,000 cells) in 150 μL of media and incubated for 24 hours to allow the cells to attach before drug addition.
After the incubation period (72 hours), 50 μL of MIT solution was added to each microtiter well and incubated for further 8 hours at 37° C. The culture medium was then removed and 50 μl, of DMSO were added to dissolve the MIT crystals. Optical densities were read at 540 nm on spectrophotometer microplate reader.
IC50 values were calculated from an average of two to four assays for each of the test agents.

[2] = tested on: 5637 human bladder carcinoma cell line; test: IC50 determination, MTS assay, 72 h (Example 2); assay type: cell-based; conditions: Homo sapiens, 72 hours of drug exposure, read-out: IC50
Procedure: (§3) The following agents were evaluated in combination with PM00104: gemcitabine (Gemzar®) and cisplatin. The human bladder carcinoma cell lines selected for this assay were the following: 5637 and UM-UC-3 cell lines. 5637 cell line was grown in RPMI 1640 medium supplemented with 10% FBS, 1.5 g/L sodium bicarbonate, 4.5 g/L glucose, 10 mM HEPES, 1 mM sodium pyruvate, and 2 mM L-glutamine. UM-UC-3 cell line was grown in MEM Eagle's medium supplemented with 10% FBS and 2 mM L-glutamine.
(§4) a. […] It was used the same methodology as those disclosed in Example 1.
(§5) IC50 values were calculated from an average of three to four assays for each of the test agents.

[3] = tested on: UM-UC-3 human bladder carcinoma cell line; test: IC50 determination, MTS assay, 72 h (Example 2); assay type: cell-based; conditions: Homo sapiens, UMUC3, 72 hours of drug exposure, read-out: IC50
Procedure: as §3, §4, §5

MIA PaCa-2 tumors = assay type: in vivo, mice; conditions: mg/kg/day: PM00104 0.90 IV
Excerpt: Female athymic nude mice (Harlan Sprague Dawley, Madison, Wis.) were utilized for all experiments. Animals were housed in ventilated rack caging with food and water ad libitum. The mice were acclimated for at least 5 days prior to tumor implantation with a tumor cell suspension.
The tumor model used in these studies was MIAPaCA-2 cell line, which was obtained from the ATCC (Manassas, Va.).
Each animal was implanted subcutaneously (SC) on the right flank, using a trochar, with 1×10^7 MIAPaCA-2 cells, from in vitro passage 18, in a 0.2 mL suspension of 50% Matrigel/50% serum free medium, without antibiotics. Matrigel is a biological extracellular matrix that is liquid at 4° C. and solid at 37° C., and it promotes tumor growth by maintaining the cells in close association in a localized area. Bacterial cultures were performed on aliquots of the cells prepared for implantation.
Tumor measurements were determined by using Vernier calipers. The formula to calculate volume for a prolate ellipsoid was used to estimate tumor volume (mm^3) from 2-dimensional tumor measurements: Tumor volume (mm^3)=[L×W^2]÷2, where L is the length and it is the longest diameter in mm, and W is the width and it is the shortest diameter in mm of a tumor. Assuming unit density, volume was converted to weight (i.e., 1 mm^3=1 mg).
Treatments were initiated on DPI (Day Post Implantation) 13. In these experiments, the combination therapy groups were treated by co-administering the two drugs at the same time, with no attempt to sequence the treatments.
as §1, §2
The definition and criteria for the evaluation of potentiation and the degree of additivity for the combination therapy were as follows:
Additivity was determined as discussed above by comparing the % of tumor growth inhibition of the monotherapy groups versus those of the combination group as follows: • 1. Determine the % of tumor growth inhibition, as 100-% T/C, for each of the drugs administered as monotherapy at the doses used in the combinations. % T/C was obtained by comparing the mean tumor weight in the treatment groups (T) to the mean tumor weight in the control group (C) (T/C×100%). • 2. The two scores were added together to determine the “expected response” if each agent produced the same response as it did when administered as monotherapy. • 3. This “expected response” was subtracted from the % of tumor growth inhibition determined for the combination therapy group: • a. […] If the resulting number was close to zero, the effect of combining the two drugs was determined as additive. • c.

[4] = day 13, gemcitabine 140 IP, erlotinib 100 PO
[5] = day 15, gemcitabine 140 IP, erlotinib 100 PO
[6] = day 19, gemcitabine 140 IP, erlotinib 100 PO
[7] = day 22, gemcitabine 140 IP, erlotinib 100 PO
[8] = day 27, gemcitabine 140 IP, erlotinib 100 PO
[9] = day 29, gemcitabine 140 IP, erlotinib 100 PO
[10] = day 33, gemcitabine 140 IP, erlotinib 100 PO
[11] = day 36, gemcitabine 140 IP, erlotinib 100 PO

For `CC(=O)O[C@H]1C(=O)[C@@]2(C)[C@H]([C@H](OC(=O)c3ccccc3)[C@]3(O)C[C@H](OC(=O)[C@H](O)[C@@H](NC(=O)c4ccccc4)c4ccccc4)C(C)=C1C3(C)C)[C@]1(OC(C)=O)CO[C@@H]1C[C@@H]2O` [paclitaxel], the “% Inhibition” value (Hs746T tumors; day 16) was 3.6%, the “% T/C on day” value (Hs746T tumors; day 16) was 96.4% and the “% Inhibition” value (Hs746T tumors; day 20) was 36.7%. The “% T/C on day” value (Hs746T tumors; day 20) was 63.3%, the “% Inhibition” value (Hs746T tumors; day 23) was 52.3% and the “% T/C on day” value (Hs746T tumors; day 23) was 47.7%. For the same compound, the “% Inhibition” value (Hs746T tumors; day 26) was 65.3%, the “% Inhibition” value (Hs746T tumors; day 29) was 78.6% and the “% T/C on day” value (Hs746T tumors; day 29) was 21.4%. For the same compound, the “% Inhibition” value (Hs746T tumors; day 33) was 76.8%, the “% T/C on day” value (Hs746T tumors; day 33) was 23.2% and the “% Inhibition” value (Hs746T tumors; day 36) was 69.9%. The “% T/C on day” value (Hs746T tumors; day 36) was 30.1% and the IC50 [1] was 47 nM.

For `COc1c(C)cc2c(c1O)[C@@H]1[C@@H]3Cc4c(OC(C)=O)c(C)c5c(c4[C@H](CNC(=O)/C=C/c4cccc(C(F)(F)F)c4)N3[C@@H](O)[C@H](C2)N1C)OCO5` [PM00104], the IC50 [2] was 0.0056 µg/mL, the IC50 [3] was 0.0069 µg/mL and the “% Inhibition” value (MIA PaCa-2 tumors; day 13, erlotinib 50 PO) was 0.9%. For the same compound, the “% Inhibition” value (MIA PaCa-2 tumors; [4]) was 0.9%, the “% T/C on day” value (MIA PaCa-2 tumors; [4]) was 99.1% and the “% Inhibition” value (MIA PaCa-2 tumors; day 15, erlotinib 50 PO) was 12.9%. The “% Inhibition” value (MIA PaCa-2 tumors; [5]) was 12.9%, the “% T/C on day” value (MIA PaCa-2 tumors; [5]) was 87.1% and the “% Inhibition” value (MIA PaCa-2 tumors; day 19, erlotinib 50 PO) was 22.8%. For the same compound, the “% Inhibition” value (MIA PaCa-2 tumors; [6]) was 22.8%, the “% T/C on day” value (MIA PaCa-2 tumors; [6]) was 77.2% and the “% Inhibition” value (MIA PaCa-2 tumors; day 22, erlotinib 50 PO) was 39.2%. The “% Inhibition” value (MIA PaCa-2 tumors; [7]) was 39.2%, the “% T/C on day” value (MIA PaCa-2 tumors; [7]) was 60.8% and the “% Inhibition” value (MIA PaCa-2 tumors; day 27, erlotinib 50 PO) was 30.8%. For the same compound, the “% Inhibition” value (MIA PaCa-2 tumors; [8]) was 30.8%, the “% T/C on day” value (MIA PaCa-2 tumors; [8]) was 69.2% and the “% Inhibition” value (MIA PaCa-2 tumors; day 29, erlotinib 50 PO) was 40.0%. The “% Inhibition” value (MIA PaCa-2 tumors; [9]) was 40.0%, the “% T/C on day” value (MIA PaCa-2 tumors; [9]) was 60.0% and the “% Inhibition” value (MIA PaCa-2 tumors; day 33, erlotinib 50 PO) was 36.1%. The “% Inhibition” value (MIA PaCa-2 tumors; [10]) was 36.1%, the “% T/C on day” value (MIA PaCa-2 tumors; [10]) was 63.9% and the “% Inhibition” value (MIA PaCa-2 tumors; day 36, erlotinib 50 PO) was 43.4%. For the same compound, the “% Inhibition” value (MIA PaCa-2 tumors; [11]) was 43.4%, the “% T/C on day” value (MIA PaCa-2 tumors; [11]) was 56.6% and the “% Inhibition” value (Hs746T tumors; day 16) was 2.0%. The “% T/C on day” value (Hs746T tumors; day 16) was 98.0%, the “% Inhibition” value (Hs746T tumors; day 20) was 34.4% and the “% T/C on day” value (Hs746T tumors; day 20) was 65.6%. For the same compound, the “% Inhibition” value (Hs746T tumors; day 23) was 49.7%, the “% T/C on day” value (Hs746T tumors; day 23) was 50.3% and the “% Inhibition” value (Hs746T tumors; day 26) was 57.2%. For the same compound, the “% T/C on day” value (Hs746T tumors; day 26) was 42.8%, the “% Inhibition” value (Hs746T tumors; day 29) was 59.1% and the “% T/C on day” value (Hs746T tumors; day 29) was 40.9%. The “% Inhibition” value (Hs746T tumors; day 33) was 49.8%, the “% T/C on day” value (Hs746T tumors; day 33) was 50.2% and the “% Inhibition” value (Hs746T tumors; day 36) was 31.4%. The “% T/C on day” value (Hs746T tumors; day 36) was 68.6% and the IC50 [1] was 5 nM.

`Nc1ccn([C@@H]2O[C@H](CO)[C@@H](O)C2(F)F)c(=O)n1` [Gemcitabine, gemcitabine] was tested, and the IC50 [2] was 0.019 µg/mL, the IC50 [3] was 0.022 µg/mL and the “% Inhibition” value (MIA PaCa-2 tumors; [4]) was 0.0%. For the same compound, the “% T/C on day” value (MIA PaCa-2 tumors; [4]) was 100.0%, the “% Inhibition” value (MIA PaCa-2 tumors; [5]) was −5.7% and the “% T/C on day” value (MIA PaCa-2 tumors; [5]) was 105.7%. For the same compound, the “% Inhibition” value (MIA PaCa-2 tumors; [6]) was 3.0%, the “% T/C on day” value (MIA PaCa-2 tumors; [6]) was 97.0% and the “% Inhibition” value (MIA PaCa-2 tumors; [7]) was 14.5%. For the same compound, the “% T/C on day” value (MIA PaCa-2 tumors; [7]) was 85.5%, the “% T/C on day” value (MIA PaCa-2 tumors; [8]) was 89.5% and the “% Inhibition” value (MIA PaCa-2 tumors; [9]) was 13.7%. The “% T/C on day” value (MIA PaCa-2 tumors; [9]) was 86.3%, the “% T/C on day” value (MIA PaCa-2 tumors; [10]) was 87.7% and the “% Inhibition” value (MIA PaCa-2 tumors; [11]) was −0.3%. For the same compound, the “% T/C on day” value (MIA PaCa-2 tumors; [11]) was 100.3% and the IC50 [1] was 0.28 nM.
